Source: US9718813B2, “Imidazolin-5-one derivative useful as FASN inhibitors for the treatment of cancer” (Janssen Pharmaceutica, NV, priority 2013, dated 2017)

Assays:
[1] = target: FASN Keto-reductase Domain (hFASN enzyme, full length) (Homo sapiens (Human), UniProt P49327); assay: Fatty Acid Synthase Keto-reductase Domain (FASN KR) Inhibition; format: biochemical; conditions: NADPH oxidation at 340 nm, ethyl acetoacetate substrate
Experimental: After 20 minutes incubation at room temperature the plate was measured again (T2).
The decrease in absorbance was calculated as (Absorbance before incubation T1)−(Absorbance following incubation T2).
(§1) Raw data generated by the instrument were normalized to % Controlmin values, which were calculated as: % Controlmin=100*(x−mLC)/(mHC−mLC)
(§2) where mLC and mHC were the means of the low control wells and high control wells on the plate, after manual exclusion of outliers. A plot of Controlmin versus test compound concentration was fitted to a 4-parameter logistic curve using a non-linear least squares regression method.

[2] = target: hFASN enzyme (full length) (Homo sapiens (Human), UniProt P49327); assay: Fatty Acid Synthase (FASN) Inhibition Scintillation Proximity Assay; format: biochemical; conditions: 3H-acetyl-CoA and malonyl-CoA substrates, SPA, mean if tested more than once
hFASN enzyme (full length), sequence (P49327 whole entry, the tested form may be a part): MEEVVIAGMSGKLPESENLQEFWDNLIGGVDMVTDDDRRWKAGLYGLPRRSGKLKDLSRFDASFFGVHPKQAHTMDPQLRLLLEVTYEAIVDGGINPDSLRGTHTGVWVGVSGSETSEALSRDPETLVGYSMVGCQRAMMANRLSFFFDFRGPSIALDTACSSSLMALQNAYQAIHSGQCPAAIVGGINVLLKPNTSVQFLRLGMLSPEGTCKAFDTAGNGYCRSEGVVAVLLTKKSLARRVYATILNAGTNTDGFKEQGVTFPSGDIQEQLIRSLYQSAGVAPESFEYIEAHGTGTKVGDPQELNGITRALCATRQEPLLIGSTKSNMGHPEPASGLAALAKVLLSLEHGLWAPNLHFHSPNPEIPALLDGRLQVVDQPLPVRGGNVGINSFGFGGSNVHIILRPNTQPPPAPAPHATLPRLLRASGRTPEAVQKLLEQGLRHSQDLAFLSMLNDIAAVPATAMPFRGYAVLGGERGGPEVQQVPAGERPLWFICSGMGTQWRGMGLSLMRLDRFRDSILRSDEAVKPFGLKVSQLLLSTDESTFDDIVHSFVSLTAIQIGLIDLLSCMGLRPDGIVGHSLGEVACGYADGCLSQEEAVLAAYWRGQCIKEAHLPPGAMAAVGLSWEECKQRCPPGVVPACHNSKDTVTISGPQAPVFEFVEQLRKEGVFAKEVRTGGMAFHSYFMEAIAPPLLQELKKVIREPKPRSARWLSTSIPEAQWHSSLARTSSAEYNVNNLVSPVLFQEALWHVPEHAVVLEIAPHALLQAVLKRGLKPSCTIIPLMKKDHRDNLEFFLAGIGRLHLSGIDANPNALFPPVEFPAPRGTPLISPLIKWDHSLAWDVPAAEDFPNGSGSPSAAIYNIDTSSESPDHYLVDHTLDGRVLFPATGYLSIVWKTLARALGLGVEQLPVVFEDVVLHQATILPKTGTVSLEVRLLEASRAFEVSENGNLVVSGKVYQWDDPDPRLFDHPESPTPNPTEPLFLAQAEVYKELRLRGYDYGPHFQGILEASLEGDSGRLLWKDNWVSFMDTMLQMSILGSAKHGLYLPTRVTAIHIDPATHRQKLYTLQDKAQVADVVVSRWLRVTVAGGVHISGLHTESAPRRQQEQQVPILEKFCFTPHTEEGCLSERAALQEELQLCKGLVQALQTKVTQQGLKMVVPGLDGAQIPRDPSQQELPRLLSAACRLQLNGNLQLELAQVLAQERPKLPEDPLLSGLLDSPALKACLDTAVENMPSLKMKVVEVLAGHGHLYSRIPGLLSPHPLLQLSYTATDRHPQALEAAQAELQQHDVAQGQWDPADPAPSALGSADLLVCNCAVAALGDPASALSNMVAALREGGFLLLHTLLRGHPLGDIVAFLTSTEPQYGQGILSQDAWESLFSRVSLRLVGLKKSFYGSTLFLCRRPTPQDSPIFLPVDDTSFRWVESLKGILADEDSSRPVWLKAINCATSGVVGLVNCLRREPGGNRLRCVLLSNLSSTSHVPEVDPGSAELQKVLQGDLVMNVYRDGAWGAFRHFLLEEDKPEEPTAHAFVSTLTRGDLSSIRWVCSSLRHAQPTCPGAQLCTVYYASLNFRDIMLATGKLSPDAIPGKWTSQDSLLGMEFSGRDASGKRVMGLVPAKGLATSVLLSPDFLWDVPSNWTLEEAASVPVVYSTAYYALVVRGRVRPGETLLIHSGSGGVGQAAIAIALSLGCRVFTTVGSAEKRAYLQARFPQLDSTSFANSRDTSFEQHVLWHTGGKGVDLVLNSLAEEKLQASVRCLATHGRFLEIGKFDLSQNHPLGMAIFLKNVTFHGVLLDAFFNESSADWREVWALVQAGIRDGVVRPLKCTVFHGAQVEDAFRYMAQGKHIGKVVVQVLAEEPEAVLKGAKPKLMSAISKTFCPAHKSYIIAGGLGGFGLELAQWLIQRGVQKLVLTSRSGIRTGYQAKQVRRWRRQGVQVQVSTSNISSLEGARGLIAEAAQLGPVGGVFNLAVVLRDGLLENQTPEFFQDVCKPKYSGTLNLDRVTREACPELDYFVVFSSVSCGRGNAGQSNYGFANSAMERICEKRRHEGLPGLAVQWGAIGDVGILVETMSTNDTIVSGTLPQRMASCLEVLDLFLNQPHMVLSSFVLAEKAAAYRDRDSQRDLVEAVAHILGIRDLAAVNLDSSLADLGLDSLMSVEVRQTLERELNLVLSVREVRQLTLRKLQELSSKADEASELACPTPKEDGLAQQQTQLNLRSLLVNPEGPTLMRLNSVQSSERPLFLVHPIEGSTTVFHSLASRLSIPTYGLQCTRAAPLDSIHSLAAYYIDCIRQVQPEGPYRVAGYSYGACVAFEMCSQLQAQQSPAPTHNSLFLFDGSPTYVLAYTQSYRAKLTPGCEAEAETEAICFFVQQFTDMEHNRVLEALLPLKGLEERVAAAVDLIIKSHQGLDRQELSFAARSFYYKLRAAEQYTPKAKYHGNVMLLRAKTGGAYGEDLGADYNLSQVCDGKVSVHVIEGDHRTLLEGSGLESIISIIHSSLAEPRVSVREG
Experimental: In this assay, inhibition of FASN activity is measured using ^3H-acetyl-CoA and malonyl-CoA as substrates. ^3H-Acetyl CoA is converted to ^3H-palmitate through a series of reactions by the FASN protein, which contains 7 functional domains and carries out 7 enzymatic reactions to ultimately produce ^3H-palmitate. The assay principle is based upon the fact that ^3H-acetyl-CoA is hydrophilic and the end product, ^3H-palmitate is hydrophobic.
10 μL assay buffer (100 mM KH2PO4 pH 7.5, 1 mM DTT) (20 μL in blanks) was added to a 384-well white Opti Plate plate (Perkin Elmer). 0.9 μL test compound (at concentrations of 30 μM, 10 μM, 3 μM, 1 μM, 0.30 μM, 0.10 μM, 0.03 μM and 0.01 μM)/DMSO and 10 μL hFASN enzyme (full length, 300 ng, purified in house) or 10 μL assay buffer was added to the wells. […] The reaction was stopped by adding 20 μL Streptavidin coupled imaging beads (25 mg/ml). After incubation for 30 minutes at room temperature in the dark, the 384 well plate was centrifuged at 1500 rpm for 3 minutes and was measured after at least 24 hrs by the LEADseeker™, measuring emission using a 610±20 nm pass filter.
as §1, §2

FASN Keto-reductase Domain (hFASN enzyme, full length), sequence (P49327 whole entry, the tested form may be a part): as above

Compound | FASN Keto-reductase Domain pIC50 [1] | Human FASN pIC50 [2]
Cn1cc(-c2ccc(-c3ccc(C4=NC(C)(C)C(=O)N4C[C@@H]4CCN(C(=O)C5CC5)C4)cc3)cc2)cn1 [Compound 16, (R)-1-((1-(cyclopropanecarbonyl)pyrrolidin-3-yl)methyl)-4,4-dimethyl-2-(4′-(1-methyl-1H-pyrazol-4-yl)-[1,1′-biphenyl]-4-yl)-1H-imidazol-5(4H)-one] | 6.20 | 6.99
Cn1cc(-c2ccc(-c3ccc(C4=NC(C)(C)C(=O)N4CC4CN(C(=O)C5CC5)C4)cc3)cc2)cn1 [Compound 17, 1-((1-(cyclopropanecarbonyl)azetidin-3-yl)methyl)-4,4-dimethyl-2-(4′-(1-methyl-1H-pyrazol-4-yl)-[1,1′-biphenyl]-4-yl)-1H-imidazol-5(4H)-one] | 5.57 | 6.26
CC1(C)N=C(c2ccc(-c3ccc(-c4ccncc4)cc3)cc2F)N(CC2CN(C(=O)C3CC3)C2)C1=O [Compound 22, 1-((1-(cyclopropanecarbonyl)azetidin-3-yl)methyl)-2-(3-fluoro-4′-(pyridin-4-yl)-[1,1′-biphenyl]-4-yl)-4,4-dimethyl-1H-imidazol-5(4H)-one] | 6.57 | 6.80
CC1(C)N=C(c2ccc(-c3ccc4cccnc4c3)cc2)N(C[C@@H]2CCN(C(=O)C3CC3)C2)C1=O [Compound 23, (R)-1-((1-(cyclopropanecarbonyl)pyrrolidin-3-yl)methyl)-4,4-dimethyl-2-(4-(quinolin-7-yl)phenyl)-1H-imidazol-5(4H)-one] | 7.25 | 7.25
CC1(C)N=C(c2ccc(-c3ccc4cccnc4c3)cc2)N(CC2CN(C(=O)C3CC3)C2)C1=O [Compound 24, 1-((1-(cyclopropanecarbonyl)azetidin-3-yl)methyl)-4,4-dimethyl-2-(4-(quinolin-7-yl)phenyl)-1H-imidazol-5(4H)-one] | 6.45 | 6.69
CC1(C)N=C(c2ccc(-c3cnc4ccccc4c3)cc2)N(C[C@@H]2CCN(C(=O)C3CC3)C2)C1=O [Compound 25, (R)-1-((1-(cyclopropanecarbonyl)pyrrolidin-3-yl)methyl)-4,4-dimethyl-2-(4-(quinolin-3-yl)phenyl)-1H-imidazol-5(4H)-one] | 6.17 | 6.15
CC1(C)N=C(c2ccc(-c3ccc(-c4ccncc4)cc3)cc2)N(CC2CN(C(=O)C3CC3)C2)C1=O [Compound 26, 1-((1-(cyclopropanecarbonyl)azetidin-3-yl)methyl)-4,4-dimethyl-2-(4′-(pyridin-4-yl)-[1,1′-biphenyl]-4-yl)-1H-imidazol-5(4H)-one] | 6.08 | ~6.22
CC1(C)N=C(c2ccc(-c3ccc4cnccc4c3)cc2)N(CC2CN(C(=O)C3CC3)C2)C1=O [Compound 27, 1-((1-(cyclopropanecarbonyl)azetidin-3-yl)methyl)-2-(4-(isoquinolin-6-yl)phenyl)-4,4-dimethyl-1H-imidazol-5(4H)-one] | 6.41 | 6.72
CC1(C)N=C(c2ccc(-c3ccc4cnccc4c3)cc2)N(C[C@@H]2CCN(C(=O)C3CC3)C2)C1=O [Compound 28, (R)-1-((1-(cyclopropanecarbonyl)pyrrolidin-3-yl)methyl)-2-(4-(isoquinolin-6-yl)phenyl)-4,4-dimethyl-1H-imidazol-5(4H)-one] | 7.14 | 7.23
CC1(C)N=C(c2ccc(-c3ccc4cc(F)ccc4c3)cc2)N(CC2CN(C(=O)C3CC3)C2)C1=O [Compound 29, 1-((1-(cyclopropanecarbonyl)azetidin-3-yl)methyl)-2-(4-(6-fluoronaphthalen-2-yl)phenyl)-4,4-dimethyl-1H-imidazol-5(4H)-one] | 6.62 | 7.02
CC1(C)N=C(c2ccc(-c3ccc4cc(F)ccc4c3)cc2)N(C[C@@H]2CCN(C(=O)C3CC3)C2)C1=O [Compound 30, (R)-1((1-(cyclopropanecarbonyl)pyrrolidin-3-yl)methyl)-2-(4-(6-fluoronaphthalen-2-yl)phenyl)-4,4-dimethyl-1H-imidazol-5(4H)-one] | 7.17 | 7.26
CC1(C)N=C(c2ccc(-c3cccc4ncccc34)cc2)N(C[C@@H]2CCN(C(=O)C3CC3)C2)C1=O [Compound 31, (R)-1-((1-(cyclopropanecarbonyl)pyrrolidin-3-yl)methyl)-4,4-dimethyl-2-(4-(quinolin-5-yl)phenyl)-1H-imidazol-5(4H)-one] | 6.33 | 6.72
Cn1ncc2cc(-c3ccc(C4=NC(C)(C)C(=O)N4CC4CN(C(=O)C5CC5)C4)c(F)c3)ccc21 [Compound 32, 1-((1-(cyclopropanecarbonyl)azetidin-3-yl)methyl)-2-(2-fluoro-4-(1-methyl-1H-indazol-5-yl)phenyl)-4,4-dimethyl-1H-imidazol-5(4H)-one] | 5.86 | 6.29
Cn1cc(-c2ccc(-c3ccc(C4=NC(C)(C)C(=O)N4CC4CN(C(=O)C5CC5)C4)c(F)c3)cc2)cn1 [Compound 33, 1-((1-(cyclopropanecarbonyl)azetidin-3-yl)methyl)-2-(3-fluoro-4′-(1-methyl-1H-pyrazol-4-yl)-[1,1′-biphenyl]-4-yl)-4,4-dimethyl-1H-imidazol-5(4H)-one] | 6.38 | 6.74
CC1(C)N=C(c2ccc(-c3ccc4cccnc4c3)cc2F)N(CC2CN(C(=O)C3CC3)C2)C1=O [Compound 39, 1-((1-(cyclopropanecarbonyl)azetidin-3-yl)methyl)-2-(2-fluoro-4-(quinolin-7-yl)phenyl)-4,4-dimethyl-1H-imidazol-5(4H)-one] | 6.81 | 7.05
CC1(C)N=C(c2ccc(-c3ccc4cccc(F)c4c3)cc2)N(CC2CN(C(=O)C3CC3)C2)C1=O [Compound 40, 1-((1-(cyclopropanecarbonyl)azetidin-3-yl)methyl)-2-(4-(8-fluoronaphthalen-2-yl)phenyl)-4,4-dimethyl-1H-imidazol-5(4H)-one] | 6.46 | 6.75
CC1(C)N=C(c2ccc(-c3ccc4cccc(F)c4c3)cc2)N(C[C@@H]2CCN(C(=O)C3CC3)C2)C1=O [Compound 41, (R)-1-((1-(cyclopropanecarbonyl)pyrrolidin-3-yl)methyl)-2-(4-(8-fluoronaphthalen-2-yl)phenyl)-4,4-dimethyl-1H-imidazol-5(4H)-one] | 7.13 | 7.34
CC1(C)N=C(c2ccc(-c3ccc4cncnc4c3)cc2)N(C[C@@H]2CCN(C(=O)C3CC3)C2)C1=O [Compound 42, (R)-1-((1-(cyclopropanecarbonyl)pyrrolidin-3-yl)methyl)-4,4-dimethyl-2-(4-(quinazolin-7-yl)phenyl)-1H-imidazol-5(4H)-one] | 6.32 | 6.65
CC1(C)N=C(c2ccc(-c3ccc4cncnc4c3)cc2F)N(C[C@@H]2CCN(C(=O)C3CC3)C2)C1=O [Compound 44, (R)-1-((1-(cyclopropanecarbonyl)pyrrolidin-3-yl)methyl)-2-(2-fluoro-4-(quinazolin-7-yl)phenyl)-4,4-dimethyl-1H-imidazol-5(4H)-one] | 6.65 | 6.79
Cn1cc(-c2ccc(-c3ccc(C4=NC(C)(C)C(=O)N4C[C@@H]4CCN(C(=O)C5CC5)C4)c(F)c3)cc2)cn1 [Compound 45, (R)-1-((1-(cyclopropanecarbonyl)pyrrolidin-3-yl)methyl)-2-(3-fluoro-4-(1-methyl-1H-pyrazol-4-yl)-[1,1′-biphenyl]-4-yl)-4,4-dimethyl-1H-imidazol-5(4H)-one] | 6.95 | 7.20
CC1(C)N=C(c2ccc(-c3ccc(-c4ccncc4)cc3)cc2F)N(C[C@@H]2CCN(C(=O)C3CC3)C2)C1=O [Compound 46, (R)-1-((1-(cyclopropanecarbonyl)pyrrolidin-3-yl)methyl)-2-(3-fluoro-4′-(pyridin-4-yl)-[1,1′-biphenyl]-4-yl)-4,4-dimethyl-1H-imidazol-5(4H)-one] | 6.90 | 7.28
CC1(C)N=C(c2ccc(-c3cccc4ncccc34)cc2F)N(C[C@@H]2CCN(C(=O)C3CC3)C2)C1=O [Compound 47, (R)-1-((1-(cyclopropanecarbonyl)pyrrolidin-3-yl)methyl)-2-(2-fluoro-4-(quinolin-5-yl)phenyl)-4,4-dimethyl-1H-imidazol-5(4H)-one] | 6.52 | 6.78
